Source: US20250002464A1, “NOVEL COMPOUND AND PHARMACEUTICAL COMPOSITION COMPRISING SAME” (SAPIENSBIO INC., priority 2021, published 2025)

These molecules were tested on α-SMA (assay: α-SMA expression inhibitory ability in MRC5 cell line (Western blotting)). Conditions: TGF-β1 (10 ng/mL), 72 hours, relative to TGF-β1 only.
Assay type: cell-based
Experimental: Subsequently, the inhibitory effect on pulmonary fibrosis of the compounds according to the present invention was overall evaluated. An MRC5 cell line was treated with each compound at 10 μM, and 2 hours later, treated with TGF-β1 (10 ng/mL). After 72 hours, the cells were lysed using RIPA Buffer, and then an α-SMA protein level was measured through Western blotting. The α-SMA expression level when treating the cells with each compound and TGF-β1 compared to the α-SMA expression level when treating the cells only with TGF-β1 without the compound was calculated as the α-SMA expression inhibitory ability of the corresponding compound. The α-SMA expression inhibitory ability of each compound is summarized in Table 2 below (A: inhibitory ability≥70%, B: 50%: inhibitory ability<70%, C: inhibitory ability<50%).

| Compound | inhibition at 10 µM |
| --- | --- |
| O=C(CCN1CCCCC1)N1CCN(Cc2ccncc2)c2ccccc21 [Compound 123, 3-(piperidin-1-yl)-1-(4-(pyridin-4-ylmethyl)-3,4-dihydroquinoxaline-1(2H)-yl)propan-1-one] | < 50% |
| O=C(CCN1CCCC1)N1CCN(c2ccccc2Cl)c2ccccc21 [Compound 125, 1-(4-(2-chlorophenyl)-3,4-dihydroquinoxaline-1(2H)-yl)-3-(pyrrolidin-1-yl)propan-1-one] | 50 to 70% |
| O=C(CCN1CCCCC1)N1CCN(c2ccccc2Cl)c2ccccc21 [Compound 126, 1-(4-(2-chlorophenyl)-3,4-dihydroquinoxaline-1(2H)-yl)-3-(piperidin-1-yl)propan-1-one] | 50 to 70% |
| CN1CCN(CCC(=O)N2CCN(c3ccccc3Cl)c3ccccc32)CC1 [Compound 127, 1-(4-(2-chlorophenyl)-3,4-dihydroquinoxaline-1(2H)-yl)-3-(4-methylpiperazin-1-yl)propan-1-one] | 50 to 70% |
| CC(C(=O)N1CCN(c2ccccc2Cl)c2ccccc21)N1CCCC1 (stereo not shown) [Compound 128, 1-(4-(2-chlorophenyl)-3,4-dihydroquinoxaline-1(2H)-yl)-2-(pyrrolidin-1-yl)propan-1-one] | 50 to 70% |
| CC(C(=O)N1CCN(c2ccccc2Cl)c2ccccc21)N1CCCCC1 (stereo not shown) [Compound 129, 1-(4-(2-chlorophenyl)-3,4-dihydroquinoxaline-1(2H)-yl)-2-(piperidin-1-yl)propan-1-one] | ≥ 70% |
| CC(C(=O)N1CCN(c2ccccc2Cl)c2ccccc21)N1CCN(C)CC1 (stereo not shown) [Compound 130, 1-(4-(2-chlorophenyl)-3,4-dihydroquinoxaline-1(2H)-yl)-2-(4-methylpiperazin-1-yl)propan-1-one] | 50 to 70% |
| O=C(CN1CCCC1)N1CCN(c2ccccc2Cl)c2ccccc21 [Compound 131, 1-(4-(2-chlorophenyl)-3,4-dihydroquinoxaline-1(2H)-yl)-2-(pyrrolidin-1-yl)ethan-1-one] | 50 to 70% |
| O=C(CN1CCCCC1)N1CCN(c2ccccc2Cl)c2ccccc21 [Compound 132, 1-(4-(2-chlorophenyl)-3,4-dihydroquinoxaline-1(2H)-yl)-2-(piperidin-1-yl)ethan-1-one] | 50 to 70% |
| CN1CCN(CC(=O)N2CCN(c3ccccc3Cl)c3ccccc32)CC1 [Compound 133, 1-(4-(2-chlorophenyl)-3,4-dihydroquinoxaline-1(2H)-yl)-2-(4-methylpiperazin-1-yl)ethan-1-one] | 50 to 70% |
| O=C(CCN1CCCC1)N1CCN(c2cccc(Cl)c2)c2ccccc21 [Compound 134, 1-(4-(3-chlorophenyl)-3,4-dihydroquinoxaline-1(2H)-yl)-3-(pyrrolidin-1-yl)propan-1-one] | ≥ 70% |
| CN1CCN(CCC(=O)N2CCN(c3cccc(Cl)c3)c3ccccc32)CC1 [Compound 135, 1-(4-(3-chlorophenyl)-3,4-dihydroquinoxaline-1(2H)-yl)-3-(4-methylpiperazin-1-yl)propan-1-one] | ≥ 70% |
| CC(C(=O)N1CCN(c2cccc(Cl)c2)c2ccccc21)N1CCCC1 (stereo not shown) [Compound 136, 1-(4-(3-chlorophenyl)-3,4-dihydroquinoxaline-1(2H)-yl)-2-(pyrrolidin-1-yl)propan-1-one] | ≥ 70% |
| CC(C(=O)N1CCN(c2cccc(Cl)c2)c2ccccc21)N1CCN(C)CC1 (stereo not shown) [Compound 137, 1-(4-(3-chlorophenyl)-3,4-dihydroquinoxaline-1(2H)-yl)-2-(4-methylpiperazin-1-yl)propan-1-one] | ≥ 70% |
| O=C(CN1CCCC1)N1CCN(c2cccc(Cl)c2)c2ccccc21 [Compound 138, 1-(4-(3-chlorophenyl)-3,4-dihydroquinoxaline-1(2H)-yl)-2-(pyrrolidin-1-yl)ethan-1-one] | ≥ 70% |
| CN1CCN(CC(=O)N2CCN(c3cccc(Cl)c3)c3ccccc32)CC1 [Compound 139, 1-(4-(3-chlorophenyl)-3,4-dihydroquinoxaline-1(2H)-yl)-2-(4-methylpiperazin-1-yl)ethan-1-one] | ≥ 70% |

| Compound | inhibition at 10 µM |
| --- | --- |
| O=C(CCN1CCCC1)N1CCN(c2ccc(Cl)cc2)c2ccccc21 [Compound 140, 1-(4-(4-chlorophenyl)-3,4-dihydroquinoxaline-1(2H)-yl)-3-(pyrrolidin-1-yl)propan-1-one] | < 50% |
| O=C(CCN1CCCCC1)N1CCN(c2ccc(Cl)cc2)c2ccccc21 [Compound 141, 1-(4-(4-chlorophenyl)-3,4-dihydroquinoxaline-1(2H)-yl)-3-(piperidin-1-yl)propan-1-one] | 50 to 70% |
| CC(C(=O)N1CCN(c2ccc(Cl)cc2)c2ccccc21)N1CCN(C)CC1 (stereo not shown) [Compound 145, 1-(4-(4-chlorophenyl)-3,4-dihydroquinoxaline-1(2H)-yl)-2-(4-methylpiperazin-1-yl)propan-1-one] | ≥ 70% |
| O=C(CCN1CCCC1)N1CCN(c2ccccn2)c2ccccc21 [Compound 146] | < 50% |
| CC(C(=O)N1CCN(c2ccccn2)c2ccccc21)N1CCCC1 (stereo not shown) [Compound 149] | < 50% |
| CC(C(=O)N1CCN(c2ccccn2)c2ccccc21)N1CCCCC1 (stereo not shown) [Compound 150] | ≥ 70% |
| O=C(CN1CCCC1)N1CCN(c2ccccn2)c2ccccc21 [Compound 152] | ≥ 70% |
| O=C(CN1CCCCC1)N1CCN(c2ccccn2)c2ccccc21 [Compound 153, 2-(piperidin-1-yl)-1-(4-(pyridin-2-yl)-3,4-dihydroquinoxaline-1(2H)-yl)ethan-1-one] | ≥ 70% |
| CN1CCN(CC(=O)N2CCN(c3ccccn3)c3ccccc32)CC1 [Compound 154, 2-(4-methylpiperazin-1-yl)-1-(4-(pyridin-2-yl)-3,4-dihydroquinoxaline-1(2H)-yl)ethan-1-one di L-tartrate] | ≥ 70% |
| O=C(CCN1CCCC1)N1CCN(c2ccncc2)c2ccccc21 [Compound 158, 1-(4-(pyridin-4-yl)-3,4-dihydroquinoxaline-1(2H)-yl)-3-(pyrrolidin-1-yl)propan-1-one] | < 50% |
| O=C(CCN1CCCCC1)N1CCN(c2ccncc2)c2ccccc21 [Compound 159, 3-(piperidin-1-yl)-1-(4-(pyridin-4-yl)-3,4-dihydroquinoxaline-1(2H)-yl)propan-1-one] | < 50% |
| O=C(CCN1CCCC1)N1CCN(CC2CC2)c2ccccc21 [Compound 161, 1-(4-(cyclopropylmethyl)-3,4-dihydroquinoxaline-1(2H)-yl)-3-(pyrrolidin-1-yl)propan-1-one] | < 50% |
| O=C(CCN1CCCCC1)N1CCN(CC2CC2)c2ccccc21 [Compound 162, 1-(4-(cyclopropylmethyl)-3,4-dihydroquinoxaline-1(2H)-yl)-3-(piperidin-1-yl)propan-1-one] | < 50% |
| CN1CCN(CCC(=O)N2CCN(CC3CC3)c3ccccc32)CC1 [Compound 163, 1-(4-(cyclopropylmethyl)-3,4-dihydroquinoxaline-1(2H)-yl)-3-(4-methylpiperazin-1-yl)propan-1-one] | < 50% |
| CC(C(=O)N1CCN(CC2CC2)c2ccccc21)N1CCCCC1 (stereo not shown) [Compound 165, 1-(4-(cyclopropylmethyl)-3,4-dihydroquinoxaline-1(2H)-yl)-2-(piperidin-1-yl)propan-1-one] | < 50% |
